In ChEMBL document CHEMBL5579854, “Targeting Relevant HDACs to Support the Survival of Cone Photoreceptors in Inherited Retinal Diseases: Identification of a Potent Pharmacological Tool with In Vitro and In Vivo Efficacy” (J Med Chem, 2024):
The source made the active and inactive calls. The rule behind the calls is not given here.

What was measured:
[1] = tested on: Mus musculus; test: Upregulation of GNAT1 mRNA level in eyes of C57BL/6J mouse model harboring rd10 mutant at 5 to 30 uM, IVT administered bilaterally measured after 5 days by RT-PCR analysis; type: functional, tissue-based; conditions: Eye, dose 5-30 µM, time 5.0 day
[2] = tested on: 661W; test: Cytoprotective effect against H2O2-induced oxidative stress in mouse 661W cells assessed as increase in acetylated alpha-tubulin level at 10 to 30 uM incubated for 24 hrs followed by H2O2 treatment for 3 hrs by immunofluorescence analysis; type: functional, cell-based; conditions: dose 10-30 µM, time 27.0 hrs
[3] = Inhibition of CYP1A in mouse liver microsomes using ECOD at 1 to 50 uM measured upto 30 mins by fluorescence based assay; type: ADME, Microsome; conditions: 0.5 h, dose 1-50 µM
[4] = Inhibition of CYP in mouse liver microsomes using ECOD at 1 to 50 uM measured upto 30 mins by fluorescence based assay; type: ADME, Microsome; conditions: 0.5 h, dose 1-50 µM
[5] = Metabolic stability in mouse liver microsomes assessed as compound recovery at 10 uM incubated for 60 mins in presence of NADPH by HPLC analysis; type: ADME, Microsome; conditions: read-out: Stability
[6] = Stability of compound at pH 7.4 measured after 24 hrs; type: physicochemical; conditions: buffer, read-out: Stability
[7] = tested on: Mus musculus; test: Upregulation of GNAT2 mRNA level in eyes of C57BL/6J mouse model harboring rd10 mutant at 5 to 30 uM, IVT administered bilaterally measured after 5 days by RT-PCR analysis; type: functional, tissue-based; conditions: Eye, dose 5-30 µM, time 5.0 day
[8] = Toxicity in zebrafish larval dye model harboring atp6v0e1/ucd6 assessed as morphological abnormalities at 20 to 100 uM treated for 2 days; parameters: species or system Danio rerio; conditions: in vivo, 48 h, dose 20-100 µM, time 2 day
[9] = Lipophilicity, logP of compound; type: physicochemical; conditions: octanol/water
[10] = Induction of cone cell survival rate in eyes of C57BL/6J mouse model harboring rd10 mutant at 30 uM, IVT administered bilaterally measured after 5 days by fluorescence microscopy relative to control; type: functional, Eye; conditions: time 5 day
[11] = tested on: Mus musculus; test: Upregulation of Hsp90b1 mRNA level in eyes of C57BL/6J mouse model harboring rd10 mutant at 5 to 30 uM, IVT administered bilaterally measured after 5 days by RT-PCR analysis; type: functional, tissue-based; conditions: Eye, dose 5-30 µM, time 5.0 day
[12] = tested on: ARPE-19; test: Cytoprotective effect against H2O2-induced oxidative stress in human ARPE-19 cells assessed as increase in cell viability at low concentration incubated for 24 hrs followed by H2O2 treatment by MTT assay; type: functional, cell-based
[13] = tested on: Cone cell; test: Induction of cone cell survival in eyes of C57BL/6J mouse model harboring rd10 mutant at 5 to 30 uM, IVT administered bilaterally measured after 5 days by IHC analysis; type: functional, tissue-based; conditions: Eye, dose 5-30 µM, time 5.0 day
[14] = Induction of cone cell survival rate in eyes of C57BL/6J mouse model harboring rd10 mutant at 5 uM, IVT administered bilaterally measured after 5 days by fluorescence microscopy relative to control; type: functional, Eye; conditions: time 5 day
[15] = tested on: Cone cell; test: Rescue of cone morphology with numerous longer outer segments in eyes of C57BL/6J mouse model harboring rd10 mutant at 5 to 30 uM, IVT administered bilaterally measured after 5 days by fluorescence microscopy; type: functional, tissue-based; conditions: Eye, dose 5-30 µM, time 5.0 day
[16] = tested on: Mus musculus; test: Downregulation of Rps6kl1 mRNA level in eyes of C57BL/6J mouse model harboring rd10 mutant at 5 to 30 uM, IVT administered bilaterally measured after 5 days by RT-PCR analysis; type: functional, tissue-based; conditions: Eye, dose 5-30 µM, time 5.0 day
[17] = tested on: Mus musculus; test: Upregulation of Nr3c1 mRNA level in eyes of C57BL/6J mouse model harboring rd10 mutant at 5 to 30 uM, IVT administered bilaterally measured after 5 days by RT-PCR analysis; type: functional, tissue-based; conditions: Eye, dose 5-30 µM, time 5.0 day
[18] = tested on: Mus musculus; test: Rescue of b-wave amplitude in photopic stimulation in eyes of C57BL/6J mouse model harboring rd10 mutant at 5 to 30 uM, IVT administered bilaterally measured after 5 days by ERG analysis; type: functional, tissue-based; conditions: Eye, dose 5-30 µM, time 5.0 day
[19] = tested on: Mus musculus; test: Upregulation of […] mRNA level in eyes of C57BL/6J mouse model harboring rd10 mutant at 5 to 30 uM, IVT administered bilaterally measured after 5 days by RT-PCR analysis; type: functional, tissue-based; conditions: Eye, dose 5-30 µM, time 5.0 day
[20] = Metabolic stability in human liver microsomes assessed as compound recovery at 10 uM incubated for 60 mins in presence of NADPH by HPLC analysis; type: ADME, Microsome; conditions: read-out: Stability
[21] = species on record: Danio rerio; test: Rescue of vision in zebrafish larval dye model harboring atp6v0e1/ucd6 at 100 uM treated for 2 days by OKR analysis; type: functional, organism-based; conditions: time 2.0 day
[22] = Toxicity in zebrafish larval dye model harboring atp6v0e1/ucd6 assessed as maximum tolerated dose treated for 2 days; parameters: species or system Danio rerio; conditions: in vivo, 48 h, time 2 day
[23] = Toxicity in Langendorff-perfused Wistar rat heart assessed as effect on QTc prolongation at 0.1 to 30 uM by ECG analysis; type: tissue-based; conditions: dose 0.1-30 µM
[24] = tested on: 661W; test: Cytoprotective effect against H2O2-induced oxidative stress in mouse 661W cells assessed as increase in acetylated histone H3 level at 5 uM incubated for 24 hrs followed by H2O2 treatment for 3 hrs by Western blot analysis; type: functional, cell-based; conditions: time 27.0 hrs
[25] = tested on: 661W; test: Cytoprotective effect against H2O2-induced oxidative stress in mouse 661W cells assessed as increase in acetylated alpha-tubulin level incubated for 24 hrs followed by H2O2 treatment for 3 hrs by Western blot analysis; type: functional, cell-based; conditions: dose 10-30 µM, time 27.0 hrs
[26] = tested on: Mus musculus; test: Inhibition of discontinuities in tight junction pattern in eyes of C57BL/6J mouse model harboring rd10 mutant at 30 uM, IVT administered bilaterally measured after 5 days by ZO-1 staining based analysis; type: functional, tissue-based; conditions: Eye, time 5.0 day
[27] = tested on: ARPE-19; test: Cytotoxicity against human ARPE-19 cells assessed as cell viability at 1 uM incubated for 24 hrs by MTT assay; type: toxicity, cell-based; conditions: arpe-19, 24 h
[28] = tested on: Cone cell; test: Rescue of cone cell morphology in eyes of C57BL/6J mouse model harboring rd10 mutant at 30 uM, IVT administered bilaterally measured after 5 days by IHC analysis; type: functional, tissue-based; conditions: Eye, time 5.0 day

O=C(NO)c1ccc(CNC(=O)N2CCc3c(c4ccccc4n3Cc3ccccc3)C2)cc1
Activity [1]: Active
Activity [2]: Active
inhibition (INH) [3]: Not Active
inhibition (INH) [4]: Not Active
remaining at 1 h, 10 µM [5]: 87%
remaining at 24 h [6]: > 99%
Activity [7]: Active
Activity [8]: Non-Toxic
logP [9]: 2.94
Activity [10]: 17%
Activity [11]: Active
Activity [12]: Active
Activity [13]: Active
Activity [14]: 4%
Activity [15]: Active
Activity [16]: Active
Activity [17]: Active
Activity [18]: Active
Activity [19]: Active
remaining at 1 h, 10 µM [20]: 84%
Activity [21]: Active
MTD [22]: 100 µM
Activity [23]: Non-Toxic
Activity [24]: Active
Activity [25]: Dose-Dependent Effect
inhibition [26]: Active
Activity [27]: Non-Toxic
Activity [28]: Active
